From patent US8426408B2, “Pyrimidine inhibitors of kinases” (AbbVie Inc., priority 2009, dated 2013)

Tests used:
Format in all cases: biochemical
KDR = KDR (Homo sapiens, UniProt P35968); assay: KDR HTRF in vitro kinase assay; design: purified enzyme (His6-KDR 789-1354, MW 63 kD); His6 (N); settings: 1 mM ATP; read-out: KDR enzyme inhibition data (Ki)
Outline: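 His6-KDR 789-1354 (7 ng/well) with 0.5 μM biotinylated peptide substrate and 1 mM ATP in HEPES pH 7.1, MgCl2/MnCl2, 60 min at room temperature. EDTA-quenched, detected by streptavidin-XL-665 plus Eu-kryptate anti-phosphotyrosine HTRF after 3 h; IC50 from 620/665 nm ratio.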

Aurora A = target: T1, Aurora A (Homo sapiens, UniProt O14965); assay: Aurora A enzyme inhibition (time-resolved fluorescence, STK substrate-2); settings: 1 mM ATP
T1 sequence (O14965 1-403): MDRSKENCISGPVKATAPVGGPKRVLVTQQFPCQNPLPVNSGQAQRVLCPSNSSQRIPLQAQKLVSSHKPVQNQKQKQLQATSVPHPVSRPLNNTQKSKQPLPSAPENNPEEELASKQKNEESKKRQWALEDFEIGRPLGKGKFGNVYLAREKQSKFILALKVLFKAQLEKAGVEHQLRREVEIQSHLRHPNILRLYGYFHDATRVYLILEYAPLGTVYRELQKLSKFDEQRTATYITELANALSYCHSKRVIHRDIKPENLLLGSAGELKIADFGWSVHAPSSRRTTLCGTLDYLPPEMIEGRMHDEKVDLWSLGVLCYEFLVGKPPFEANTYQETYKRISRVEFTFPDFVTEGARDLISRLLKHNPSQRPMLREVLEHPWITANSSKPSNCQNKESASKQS
Outline: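 Phosphorylation of biotinylated STK substrate-2 at 1 mM ATP, 1 h, Hepes buffer pH 7.4 (MgCl2, sodium orthovanadate, Triton X-100). After EDTA quench, 665/615 nm time-resolved fluorescence ratio read via europium anti-phospho antibody and SA-XL665; IC50 from exponential fit versus inhibitor concentration.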

Aurora B = target: T2, Aurora B (Homo sapiens, UniProt Q96GD4); assay: Aurora B enzyme inhibition (time-resolved fluorescence, histone H3 peptide); settings: 1 mM ATP
T2 construct: Active Aurora B enzyme (recombinant residues 1-344)
Outline: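 IC50s came from an exponential fit of inhibition against inhibitor concentration, with phosphorylation read as the 665/615 nm time-resolved fluorescence ratio after EDTA stop using Eu-anti-phospho-H3 and SA-APC. The 1 h reaction used Aurora B 1-344 plus GST-INCENP, biotin-histone H3 1-21 peptide and 1 mM ATP in pH 7.4 HEPES buffer.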

T2 sequence (Q96GD4 whole entry, the tested form may be a part): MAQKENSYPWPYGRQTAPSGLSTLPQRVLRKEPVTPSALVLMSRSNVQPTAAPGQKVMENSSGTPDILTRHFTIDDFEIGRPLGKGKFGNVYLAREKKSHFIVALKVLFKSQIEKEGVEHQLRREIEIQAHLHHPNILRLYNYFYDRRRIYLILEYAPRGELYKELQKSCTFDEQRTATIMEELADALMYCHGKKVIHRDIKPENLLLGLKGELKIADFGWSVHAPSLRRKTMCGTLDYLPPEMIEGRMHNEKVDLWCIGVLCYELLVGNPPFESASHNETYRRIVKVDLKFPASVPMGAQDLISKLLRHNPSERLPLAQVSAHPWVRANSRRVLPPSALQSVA
T2 sequence (Q9NQS7 826-918 partner limits assumed): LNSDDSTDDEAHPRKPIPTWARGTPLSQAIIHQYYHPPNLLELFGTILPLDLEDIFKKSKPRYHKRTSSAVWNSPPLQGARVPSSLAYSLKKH
Chain of KDR (P35968 789-1354): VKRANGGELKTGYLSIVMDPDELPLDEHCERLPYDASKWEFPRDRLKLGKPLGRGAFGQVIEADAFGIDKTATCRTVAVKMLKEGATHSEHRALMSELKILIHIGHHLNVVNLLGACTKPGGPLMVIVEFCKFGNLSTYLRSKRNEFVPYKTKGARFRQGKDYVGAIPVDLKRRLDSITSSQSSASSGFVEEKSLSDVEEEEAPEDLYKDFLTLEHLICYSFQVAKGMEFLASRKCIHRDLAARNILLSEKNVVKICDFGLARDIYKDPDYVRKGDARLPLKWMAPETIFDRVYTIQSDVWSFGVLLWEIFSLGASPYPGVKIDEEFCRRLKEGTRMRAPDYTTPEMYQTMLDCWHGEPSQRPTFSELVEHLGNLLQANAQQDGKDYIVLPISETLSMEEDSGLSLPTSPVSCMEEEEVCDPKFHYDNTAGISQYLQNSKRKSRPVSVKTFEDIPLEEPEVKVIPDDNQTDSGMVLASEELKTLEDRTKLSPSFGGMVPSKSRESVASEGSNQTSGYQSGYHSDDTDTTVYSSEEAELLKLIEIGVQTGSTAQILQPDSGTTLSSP

| Compound | Ki (KDR) | Ki (Aurora A) | Ki (Aurora B) |
| --- | --- | --- | --- |
| CC(O)Cn1cc(Nc2ncc(F)c(NC3C4C=CC(C4)C3C(N)=O)n2)cn1 (mixture of isomers) [Example 15, (1R,2R,3S,4S)-3-{[5-fluoro-2-({1-[(2R)-2-hydroxypropyl]-1H-pyrazol-4-yl}amino)pyrimidin-4-yl]amino}bicyclo[2.2.1]hept-5-ene-2-carboxamide and (1S,2S,3R,4R)-3-{[5-fluoro-2-({1-[(2R)-2-hydroxypropyl]-1H-pyrazol-4-yl}amino)pyrimidin-4-yl]amino}bicyclo[2.2.1]hept-5-ene-2-carboxamide] | 1000 to 5000 nM | 100 to 1000 nM | < 100 nM |
| CCOC(=O)[C@@H]1[C@H](Nc2nc(Nc3cnn(C)c3)ncc2F)[C@H]2C=C[C@@H]1C2.CCOC(=O)[C@H]1[C@@H](Nc2nc(Nc3cnn(C)c3)ncc2F)[C@@H]2C=C[C@H]1C2 (mixture of isomers) [Example 7, ethyl(1S,2S,3R,4R)-3-({5-fluoro-2-[(1-methyl-1H-pyrazol-4-yl)amino]pyrimidin-4-yl}amino)bicyclo[2.2.1]hept-5-ene-2-carboxylate and ethyl(1R,2R,3S,4S)-3-({5-fluoro-2-[(1-methyl-1H-pyrazol-4-yl)amino]pyrimidin-4-yl}amino)bicyclo[2.2.1]hept-5-ene-2-carboxylate] | > 5000 nM | > 5000 nM | 100 to 1000 nM |
| (1S,2S,3R,4R)-3-{[5-chloro-2-({1-[2-(4-methylpiperazin-1-yl)ethyl]-1H-pyrazol-4-yl}amino)pyrimidin-4-yl]amino}bicyclo[2.2.1]hept-5-ene-2-carboxamide and (1R,2R,3S,4S)-3-{[5-chloro-2-({1-[2-(4-methylpiperazin-1-yl)ethyl]-1H-pyrazol-4-yl}amino)pyrimidin-4-yl]amino}bicyclo[2.2.1]hept-5-ene-2-carboxamide [Example 46] | < 100 nM | < 100 nM | < 100 nM |
| CC(C)OC(=O)Cn1cc(Nc2ncc(Cl)c(N[C@H]3[C@@H](C(N)=O)[C@@H]4C=C[C@H]3C4)n2)cn1 [Example 78, isopropyl{4-[(4-{[(1R,2R,3S,4S)-3-(aminocarbonyl)bicyclo[2.2.1]hept-5-ene-2-yl]amino}-5-chloropyrimidin-2-yl)amino]-1H-pyrazol-1-yl}acetate] | < 100 nM | < 100 nM | < 100 nM |
| CNC(=O)[C@@H]1[C@H](Nc2nc(Nc3cnn(C)c3)ncc2C(F)(F)F)[C@H]2C=C[C@@H]1C2.CNC(=O)[C@H]1[C@@H](Nc2nc(Nc3cnn(C)c3)ncc2C(F)(F)F)[C@@H]2C=C[C@H]1C2 (mixture of isomers) [Example 47, (1S,2S,3R,4R)—N-methyl-3-{[2-[(1-methyl-1H-pyrazol-4-yl)amino]-5-(trifluoromethyl)pyrimidin-4-yl]amino}bicyclo[2.2.1]hept-5-ene-2-carboxamide and (1R,2R,3S,4S)—N-methyl-3-{[2-[(1-methyl-1H-pyrazol-4-yl)amino]-5-(trifluoromethyl)pyrimidin-4-yl]amino}bicyclo[2.2.1]hept-5-ene-2-carboxamide] | < 100 nM | < 100 nM | < 100 nM |
| NC(=O)[C@@H]1[C@H](Nc2nc(Nc3cnn(C4CCNCC4)c3)ncc2Cl)[C@H]2C=C[C@@H]1C2 [Example 82, (1S,2S,3R,4R)-3-({5-chloro-2-[(1-piperidin-4-yl-1H-pyrazol-4-yl)amino]pyrimidin-4-yl}amino)bicyclo[2.2.1]hept-5-ene-2-carboxamide] | < 100 nM | < 100 nM | < 100 nM |
| NC(=O)[C@@H]1[C@H]2CC[C@H](C2)[C@@H]1Nc1nc(Nc2cnn(CCO)c2)ncc1Cl.NC(=O)[C@H]1[C@@H]2CC[C@@H](C2)[C@H]1Nc1nc(Nc2cnn(CCO)c2)ncc1Cl (mixture of isomers) [Example 59, (1R,2S,3R,4S)-3-[(5-chloro-2-{[1-(2-hydroxyethyl)-1H-pyrazol-4-yl]amino}pyrimidin-4-yl)amino]bicyclo[2.2.1]heptane-2-carboxamide and (1S,2R,3S,4R)-3-[(5-chloro-2-{[1-(2-hydroxyethyl)-1H-pyrazol-4-yl]amino}pyrimidin-4-yl)amino]bicyclo[2.2.1]heptane-2-carboxamide] | < 100 nM | < 100 nM | < 100 nM |
| NC(=O)[C@@H]1[C@H](Nc2nc(Nc3cnn(CCO)c3)ncc2Cl)[C@H]2C=C[C@@H]1C2 [Example 65, (1S,2S,3R,4R)-3-[(5-chloro-2-{[1-(2-hydroxyethyl)-1H-pyrazol-4-yl]amino}pyrimidin-4-yl)amino]bicyclo[2.2.1]hept-5-ene-2-carboxamide] | < 100 nM | < 100 nM | < 100 nM |
| Cn1cc(Nc2ncc(C(F)(F)F)c(N[C@@H]3[C@H](C(=O)NCCO)[C@H]4C=C[C@@H]3C4)n2)cn1.Cn1cc(Nc2ncc(C(F)(F)F)c(N[C@H]3[C@@H](C(=O)NCCO)[C@@H]4C=C[C@H]3C4)n2)cn1 (mixture of isomers) [Example 67, (1S,2S,3R,4R)—N-(2-hydroxyethyl)-3-{[2-[(1-methyl-1H-pyrazol-4-yl)amino]-5-(trifluoromethyl)pyrimidin-4-yl]amino}bicyclo[2.2.1]hept-5-ene-2-carboxamide and (1R,2R,3S,4S)—N-(2-hydroxyethyl)-3-{[2-[(1-methyl-1H-pyrazol-4-yl)amino]-5-(trifluoromethyl)pyrimidin-4-yl]amino}bicyclo[2.2.1]hept-5-ene-2-carboxamide] | < 100 nM | < 100 nM | < 100 nM |
